For data set [1], the system named is Recurrent Laryngeal Papillomatosis (RRP). Briefly: Oral therapy of Recurrent Laryngeal Papillomatosis in a child (case one). The following applies: child A. L.; oral I3C 5-7 mg per kg, 6 months; no lengthening of intervals between surgical procedures. It is filed as in vivo, human. On the procedure: The following describes oral Diindolylmethane therapy for the Recurrent Laryngeal Papillomatosis (RRP), a rare condition in which wart like lesions develop in and around the larynx and vocal cords in association with HPV. patient one is a child with RRP. They were diagnosed with RRP. Before Diindolylmethane therapy they had undergone 21 laryngoscopic surgical procedures for recurrent laryngeal papillomas compromising their airway. […] Tracheostomy was performed in 1998 to provide a more secure airway. Diindolylmethane in an absorbable formulation according to U.S. Pat. No. […] Surgical frequency increased immediately to two months.

Another data set concerns laryngeal papillomatosis. The following applies: cited from earlier work.
Data set [2] concerns cervical intraepithelial neoplasia (CIN). The following applies: after 3 months on either 200 mg/day or 400 mg/day of I3C; 8 of 17; cited from earlier work.
The conditions of data set [3]: human, in vivo. On the procedure: The subject is preferably fasting and plasma is preferred over serum. In this method 120 mg or more of formulated DIM (30 mg or more of actual DIM) are taken orally by a subject fasting for at least 4 hours along with 8 ounces of water. Blood samples are obtained on a timed basis between 120 and 180 minutes after ingesting the DIM. Samples obtained during this timeframe are analyzed by a Gas Chromatography Mass Spectrometry (GC-MS) technique. Circulating amounts of DIM during this timeframe are maximal levels following a single dose. […] The following steps describe the method for determining amounts of absorbed DIM in blood. • 1. […] The following ions are monitored: m/z 390 (primary), 391,392 (confirmatory). Area for peak 390 is measured. • 9. […]
For blood level studies adult subjects were studied in a fasting state. […] Sample analysis using a technique for GC-MS measurement of Diindolylmethane, involving acetonitrile extraction, silyation, and GC-MS quantitation was performed as adapted from the literature (Stresser, D. M., Bjeldanes, L. F., Bailey, G. S., et al., “The anticarcinogen 3,3′-Diindolylmethane is an inhibitor of cytochrome P-450”, J. Biochem. Toxicol., 10(4):191-201 (1995)) and described in section 4.2 above. […]

A short description of data set [4]: Urinary Diindolylmethane levels by GC-MS after a single oral dose. The following applies: for Urinary DIM: 75 mg oral dose (300 mg of 25% formulation), single individual. In kind it is in vivo, human. Here is the method: The invention also provides a method for determining the urine level of DIM in a subject following oral administration of Diindolylmethane. In this method 300 mg or more of formulated DIM (75 mg or more of actual DIM) are taken with 8 ounces of water. Urine samples are obtained every 90 minutes for a period of 360 minutes. GC-MS operating conditions included were based on a published GC-MS analysis technique for DIM in urine (Sepkovic D W, Bradlow H L, Bell M, “Quantitative Determination of 3,3′-Diindolylmethane in the Urine of Individuals Receiving Indole-3-Carbinol” J. Nutrition (2002 in press). The following technique for analyzing DIM in urine samples was used: • 1. A 1 cc aliquot of urine for assay of diindolylmethane is mixed with 1 cc of sodium acetate buffer (pH 4.8) and 20 ul Beta-Glucuronidase from Helix Pomatia (110,200 units/ml: Sigma, St. Louis, Mo.). • 2. The solution is incubated at 40° C. for 24 hours. • 3. An internal standard of 4,4′dichlorodiindolylmethane is then added. • 4. The sample is then extracted in twice equal volume of chloroform and the sample vortexed and reduced to dryness under vacuum. • 5. The dried residue is dissolved in 20 uL of anhydrous pyridine and derivatized with 80 ul of N2O-bis-(timethyl-silyl)trifluoroacetamide (BFSTA) (Pierce Biochemical Co, Rockford, Ill.). The sample is heated to 100° C. for one hour. • 6. The derivatized sample is then injected into a Gas Chromatography Mass Spectrometer (GC-MS) in single ion monitoring mode recording results at a derivatized mass of 390. The following ions are monitored: m/z 390 (primary), 391,392 (confirmatory). Area for peak 390 is measured. • 7. Peaks are compared to a standard curve for pure diindoylylmethane in known concentrations as a standard. • 8. Creatinine in each 90 minute timed urine sample was measured by a standard Kinetic Alkaline Picrate (KAP) colormetric assay with results in mg of creatinine per cc of urine. • 9. Results obtained for DIM from the 1 cc aliquot of each timed urine sample are reported as nanograms of DIM per mg of Creatinine. This permits comparisons of urine samples of different water content in different timed samples eliminating the effects of changing hydration status of the human subject.
A related gas chromatography-mass spectrometry (GC-MS) method for the quantitation of Diindolylmethane in urine was developed. This technique is simpler, requiring less sample preparation but similar use of GC-MS analysis and provides results expressed as nanograms of Diindolylmethane per mg of Creatinine (ng DIM per mg Cre). Since production rates of Creatinine (Cre) are constant in an individual this technique allows comparison of urine samples from different times having differing water content. Sepkovic, D. W., Bradlow, H. L. Bell, M., Quantitative Determination of 3,3′-Diindolylmethane in the Urine of Individuals Receiving Indole-3-Carbinol, J. Nutrition (in press 2002).
A single individual was studied after taking 75 mg Diindolylmethane (300 mg of a 25% absorption-enhance formulation of Diindolylmethane) as a single dose after waiting 4 days since prior use of Diindolylmethane. Urine samples were collected every 90 minutes for a total of 360 minutes, frozen, and subsequently analyzed as described.

Data set [5] deals with cutaneous warts (verrucae vulgaris). The data set is described as follows: Oral Diindolylmethane with Pregnenolone for cutaneous warts (case three). In kind it is in vivo, human. To be noted: patient three; dose increased to maximum of 150 mg/day over 6 weeks.
Protocol: Pregnenolone at 50 mg/day in a capsule form was added for immune enhancement.
Data set [6] relates to verrucae involving the plantar skin. Briefly: Oral Diindolylmethane for childhood warts (case two). It is filed as in vivo, human. To be noted: child two; 75 mg/day (3 mg/kg/day). From the text:
The usefulness of oral forms of Diindolylmethane in treating verrucous disease of childhood is illustrated by the case of C. B. The subject is a child with classic verrucae involving the plantar skin of one foot. The process began as a single wart, which was frozen with liquid nitrogen by a pediatrician. […] Within 2 months, however, a new wart recurred at the sight of the original scar. Upon recurrence the primary lesion measured approximately 0.75 cm in diameter but was now circled by a number of smaller satellite lesions surrounding the recurrent primary wart.
Treatment was initiated with 75 mg/day of Diindolylmethane in an absorbable formulation (300 mg total formula weight). With the patient weighing 25 kg, this provided 3 mg/kg/day of Diindolylmethane and 12 mg/kg/day of the formulation. […] There was no pain or scarring associated with the gradual resolution.

Data set [7] concerns HPV-related cervical dysplasia. Briefly: Oral Diindolylmethane for HPV-related cervical dysplasia (case histories and open pilot study). To be noted: four women, 112 mg/day actual Diindolylmethane.
Description: Women with moderate to severe dyplasia on cervical biopsies volunteered for an open trial of oral Diindolylmethane supplementation.
Four women, meeting the criteria of moderate to severe HPV-related cervical dysplasia were included in a pilot study.
Where [8] appears, read: dietary supplementation with I3C, laryngeal papillomatosis.

`OCc1c[nH]c2ccccc12` [I3C, Indole-3-carbinol]: the “Clinical response of laryngeal papillomas” value in data set [1] is on record as “failed to produce clinical improvement”. Moreover, in the data set on laryngeal papillomatosis (clinical use of I3C), the “Doses with neurologic and gastrointestinal toxicity” value is given as “more than 400 mg per day”. In addition, in the data set on laryngeal papillomatosis (setting [8]), the “Disappearance of existing lesions” value is reported as “did not result in the disappearance of existing lesions in any patient” and the “Patients with cessation of papilloma growth” value is on record as 33%. Moreover, in the data set with laryngeal papillomatosis (gastrointestinal and central nervous system side effects on increasing the dose), the Maximal tolerated dose was 5 to 7 mg/kg. Moreover, the “Treated patients with normalized cervical biopsy” value in data set [2] is reported as 50%.
In the case of `c1ccc2c(Cc3c[nH]c4ccccc34)c[nH]c2c1` [Diindolylmethane], in data set [3], the “Augmentation in Diindolylmethane blood levels from the low to high dose” value was “more than 3 times”. In addition, the “Urinary DIM” value was 2.6 ng/mg Cre in data set [4] (90 minutes), 3.82 ng/mg Cre in data set [4] (180 minutes), 3.30 ng/mg Cre in data set [4] (270 minutes) and 2.50 ng/mg Cre in data set [4] (360 minutes). In data set [4] (75 mg oral dose, around 180 minutes following oral dosing), the “Plateau of urinary Diindolylmethane” value turned out to be 3.5 ng/mg Creatinine. In data set [5], the Side effects result is “without side effects”. Also, the “Side effects associated with the oral treatment” value in data set [6] is on record as “No side effects”. Besides, the “Side effects or adverse events” value in data set [7] is recorded as “no significant side effects or adverse events”.

Values taken from patent US8236848B2, “Diindolylmethane for the treatment of HPV infection” (BioResponse, L.L.C., priority 2001, dated 2012).
